Data from patent publication US20260287577A1, “APPLICATIONS OF HEPATOCYTE CO-CULTURE SYSTEM” (LifeNet Health, priority 2023, published 2026).

Key:
Assay type in all cases: cell-based, human
hTCS with KC [1] = test: Urea production, Example 10; settings: 10 ng/ml, between 6 and 96 h
Experimental: (§1) A 24-well plate, all-human cell-based triculture system (hTCS) that includes cryopreserved primary human feeder cells (FCs) and primary human hepatocytes (PHHs) and KC were used. The ratios of hepocytes: KC of 1:4 and 1:2 were used. The cells were exposed to TGF-β (10 ng/ml), with NO DEX in the media. During exposure, the above genes were followed. The workflow was the same as described in Example 9.
(§2) Exposure times were measured at 2, 6, 24, and 96 hours. The gene expressions SMAD-7, LOX, MMP1, LGALS3, UCHL1, HSP90B1, MMP14, PPAR-λ(gamma)) and two housekeeping genes; β-Actin (duplexed) and GAPDH were measured. Cell Health was evaluated by measuring lactate dehydrogenase (LDH), and urea production at all time points.

[2] = system: SMAD-7, LOX, MMP1, LGALS3, UCHL1, HSP90B1, MMP14, PPAR-λ(gamma); test: Gene expression time course after TGF-β exposure, Example 10; settings: 10 ng/ml, no DEX
Experimental: as §1
The cells were exposed to 10 ng/ml TGF-β.
as §2

LGALS3 (Galectin3) = test: cells
Experimental: (§3) Methods: The hepatic tri-culture system, including adult primary human hepatocytes (PHHs), endothelial cells and stromal cells, was cultured with and without primary KCs, at a ratio of 1 KC:4 PHH or 1 KC:2 PHH, in a glucocorticoid-containing or -free media. […] MTX or TGF-β1 or […] (LPS) cause hepatic injury. The injury leads to lipid accumulation, lipotoxicity and cytokines are produced. These activate the KCs and the liver sinusoidal endothelial cells (LSEC). Then stromal activation and gene expressions occur, leading to liver fibrosis.
(§4) Following exposure to methotrexate (MTX; 0.1 and 1 μM; Sigma-Aldrich, St. Louis, MO) or TGF-β1 (0.1 and 10 ng/ml; Miltenyi Biotec, Gaithersburg, MD) or vehicle (DMSO; 0.1% v/v), the expression of various genes known to have a role in fibrogenic responses (e.g., LGALS3, LOX, MMP1) was determined. MTX and TGF-β1 are known fibrogenic compounds Cell health was assessed by urea production and LDH release in the medium.
(§5) The experiments were done in a 96-well format according to the details shown below. […] The hepatocytes were from an individual adult lot. The Kupffer cells (KCs) were from an individual adult lot. The seeding density of the Kupffer cells to the hepatocytes was selected to mimic healthy or inflammatory physiological levels (1:4 or 1:2 ratio). The seeding of the KCs occurred on Day 1 of the culture (meaning 24 hours post-hepatocyte plating).
(§6) All hepatocyte plating was performed using TCPM with Dex (1 μM), as above. Four hours after hepatocyte plating, TCCM was added with and without Dex (half of the cultures with Dex, half without.) The media used were those as described above. The medium exchange process was to do 50% media changes following KC plating up until the compound addition.
(§7) Thawing and plating of the hepatocytes was done according to methods as known in the art. The next day (24 hours) after plating the cells, the KCs were added in TCCM with or without Dex (0.1 μM) at a 1:4 or 1:2 ratio to hepatocytes. The next day and subsequent days, 50% volume of medium was changed each day. Starting at day 5 of culture, the compounds tested were added in the 50% medium volume and allowed to go, unchanged, through Day 8 of culture (72 hr treatment); or to 120 hr treatment times. The treatment compounds were methotrexate (0.1 and 1.0 μM) and TGF-β1 (0.1 and 10 ng/ml).
(§8) The cell harvest and analytical endpoints were done as follows. Phase contrast images were captured each day. The media samples were collected for lactate dehydrogenase (LDH) assay at the end of each treatment period (i.e., 72 or 120 hours of treatment with each compound). The results were used to assess cell health. Cell lysates were harvested for gene expression analysis. 2 wells were combined per sample. The treatment samples were analyzed in triplicate. The following genes that have a role in fibrogenic response were observed. LGALS3 (Galectin3); LOX (lysyl oxidase), MMP1 (matrix Metalloproteinase 1); Housekeeping gene (β-actin). The images in FIGS. 44 and 45 are at 200×.

[3] = system: MMP1 (matrix Metalloproteinase 1); test: cells
Experimental: as §3, §4, §5, §6, §7, §8

LOX (lysyl oxidase) = test: cells
Experimental: as §3, §4, §5, §6, §7, §8

hepatic tri-cultures = test: Cell health (morphology, urea production, LDH release), Example 9; settings: TGF-β1 10 ng/ml, exposure up to 120 hr
Experimental: as §4, §8

[4] = system: genes known to have a role in fibrogenic responses (e.g., LGALS3, LOX, MMP1); test: Fibrogenic response gene expression overall, Example 9
Experimental: as §3, §4, §5, §6
Thawing and plating of the hepatocytes was done according to methods as known in the art. The next day (24 hours) after plating the cells, the KCs were added in TCCM with or without Dex (0.1 μM) at a 1:4 or 1:2 ratio to hepatocytes. […]
The cell harvest and analytical endpoints were done as follows. […] The treatment samples were analyzed in triplicate. […]

hTCS with KC [5] = test: LDH cytotoxicity, Example 10; settings: 10 ng/ml, presence of Kupffer cells, after 96 hours of exposure
Experimental: as §1, §2

[6] = system: co-cultured cells at a 1:2 Kupffer cell to hepatocyte ratio; test: Cell morphology imaging, Example 10; settings: 24 hours of exposure
Experimental: as §1

[7] = 72 hours, with Dex, No KC, TGF-β1 0.1 ng/mL
[8] = 72 hours, with Dex, with KCs, TGF-β1 0.1 ng/mL
[9] = 72 hours, with Dex, with KCs, TGF-β1 10 ng/mL
[10] = 72 hours, without Dex, No KC, TGF-β1 0.1 ng/mL
[11] = 72 hours, without Dex, No KC, TGF-β1 10 ng/mL
[12] = 72 hours, without Dex, with KCs, TGF-β1 0.1 ng/mL
[13] = 72 hours, without Dex, with KCs, TGF-β1 10 ng/mL
[14] = 120 hours, with Dex, No KC, TGF-β1 0.1 ng/mL
[15] = 120 hours, with Dex, No KC, TGF-β1 10 ng/mL
[16] = 120 hours, with Dex, with KCs, TGF-β1 0.1 ng/mL
[17] = 120 hours, with Dex, with KCs, TGF-β1 10 ng/mL
[18] = 120 hours, without Dex, No KC, TGF-β1 0.1 ng/mL
[19] = 120 hours, without Dex, No KC, TGF-β1 10 ng/mL
[20] = 120 hours, without Dex, with KCs, TGF-β1 0.1 ng/mL
[21] = 120 hours, without Dex, with KCs, TGF-β1 10 ng/mL

Substance: TGF-β1: transforming growth factor-β1, pro-fibrogenic cytokine used as fibrogenic reference compound
- urea production rate compared to vehicle alone (hTCS with KC [1]): a decrease in the production rate
- gene expression ([2]; 24 hours of exposure, 1:2 and 1:4 ratios): multiple positive signals for gene expression
- gene expression compared to the controls ([2]; 96 hours exposure, almost all genes, ratios 1:4 and 1:2 Kupffer cells to hepatocytes): reduced gene expression
- LGALS3 fold induction Mean (LGALS3 (Galectin3); [7]): 1.1 fold
- LGALS3 fold induction Mean (LGALS3 (Galectin3); 72 hours, with Dex, No KC, TGF-β1 10 ng/mL): 0.8 fold
- LGALS3 fold induction Mean (LGALS3 (Galectin3); [8]): 0.9 fold
- LGALS3 fold induction Mean (LGALS3 (Galectin3); [9]): 0.8 fold
- LGALS3 fold induction Mean (LGALS3 (Galectin3); [10]): 1.2 fold
- LGALS3 fold induction Mean (LGALS3 (Galectin3); [11]): 0.5 fold
- LGALS3 fold induction Mean (LGALS3 (Galectin3); [12]): 1.1 fold
- LGALS3 fold induction Mean (LGALS3 (Galectin3); [13]): 0.8 fold
- LGALS3 fold induction Mean (LGALS3 (Galectin3); [14]): 1.0 fold
- LGALS3 fold induction Mean (LGALS3 (Galectin3); [15]): 0.8 fold
- LGALS3 fold induction Mean (LGALS3 (Galectin3); [16]): 0.8 fold
- LGALS3 fold induction Mean (LGALS3 (Galectin3); [17]): 0.8 fold
- LGALS3 fold induction Mean (LGALS3 (Galectin3); [18]): 1.0 fold
- LGALS3 fold induction Mean (LGALS3 (Galectin3); [19]): 0.4 fold
- LGALS3 fold induction Mean (LGALS3 (Galectin3); [20]): 1.1 fold
- LGALS3 fold induction Mean (LGALS3 (Galectin3); [21]): 0.6 fold
- MMP1 fold induction Mean [3, 7]: 0.9 fold
- MMP1 fold induction Mean [3, 8]: 1.0 fold
- MMP1 fold induction Mean [3, 9]: 1.3 fold
- MMP1 fold induction Mean [3, 10]: 1.0 fold
- MMP1 fold induction Mean [3, 11]: 1.2 fold
- MMP1 fold induction Mean [3, 12]: 1.1 fold
- MMP1 fold induction Mean [3, 13]: 1.2 fold
- MMP1 fold induction Mean [3, 14]: 1.2 fold
- MMP1 fold induction Mean [3, 15]: 1.1 fold
- MMP1 fold induction Mean [3, 16]: 1.2 fold
- MMP1 fold induction Mean [3, 17]: 0.1 fold
- MMP1 fold induction Mean [3, 18]: 1.0 fold
- MMP1 fold induction Mean [3, 19]: 1.1 fold
- MMP1 fold induction Mean [3, 20]: 1.1 fold
- MMP1 fold induction Mean [3, 21]: 1.7 fold
- MMP1 gene expression ([3]; TGF-β1 10 ng/ml, presence of KCs): increased MMP1 in a time-dependent manner
- LOX fold induction Mean (LOX (lysyl oxidase); [7]): 1.1 fold
- LOX fold induction Mean (LOX (lysyl oxidase); [8]): 1.0 fold
- LOX fold induction Mean (LOX (lysyl oxidase); [9]): 1.2 fold
- LOX fold induction Mean (LOX (lysyl oxidase); [10]): 1.2 fold
- LOX fold induction Mean (LOX (lysyl oxidase); [11]): 1.3 fold
- LOX fold induction Mean (LOX (lysyl oxidase); [12]): 1.1 fold
- LOX fold induction Mean (LOX (lysyl oxidase); [13]): 1.6 fold
- LOX fold induction Mean (LOX (lysyl oxidase); [14]): 0.9 fold
- LOX fold induction Mean (LOX (lysyl oxidase); [15]): 1.7 fold
- LOX fold induction Mean (LOX (lysyl oxidase); [16]): 1.0 fold
- LOX fold induction Mean (LOX (lysyl oxidase); [17]): 1.6 fold
- LOX fold induction Mean (LOX (lysyl oxidase); [18]): 1.2 fold
- LOX fold induction Mean (LOX (lysyl oxidase); [19]): 2.2 fold
- LOX fold induction Mean (LOX (lysyl oxidase); [20]): 1.2 fold
- LOX fold induction Mean (LOX (lysyl oxidase); [21]): 2.0 fold
- cell stress (hepatocellular morphology, urea production, LDH release) (hepatic tri-cultures): exhibited signs of cell stress
- culture conditions in which effects on fibrogenic genes were observed ([4]; DEX / no DEX, with / without KCs): observed in both DEX and no DEX treated groups, with or without KCs
- gene expression ([4]; TGF-β1 0.1 ng/ml): did not affect gene expression
- cytotoxicity based on LDH production (hTCS with KC [5]): cytotoxicity of the co-cultured cells was low
- cell appearance [6]: the cells appear healthy
